Tests used:
Caco2 cells = assay: Cell-cycle analysis by flow cytometry (PI), Caco2; type: cell-based, human; settings: Caco2, 117.6 μg/mL, 24 h
Description: The Ru(III) complex (2) (117.6 μg/mL) was added to MCF7 and Caco2 cells at a confluence of 70–80% and incubated for 24 h (in a CO2 incubator). The cells were then digested with warm trypsin-EDTA + warm PBS-EDTA (0.25%) (500 + 500 μL) with incubation for 10 min at 37 °C. The mixture was centrifuged (450 rpm) for 5 min, then the supernatant was removed. The mixture was washed twice in warm PBS and the cell pellet was re-suspended in 500 µl warm PBS, centrifuged and the supernatant decanted. A volume of 150 μL PBS + 350 μL ice-cold 70% ethanol was added and incubated at 4 °C for 1 h to fix the cells. To remove ethanol, the mixture was centrifuged at 350 rpm for 10 min and then the supernatant was removed. The mixture was washed twice in warm PBS and the cells were re-suspended in 500 μL of warm PBS, centrifuged, and the supernatant was removed. The cells were resuspended in 100 μL PBS and stored at 4 °C for up to four days. In darkness, the cells were stained with 100 µL of propidium iodide (PI) solution + 50 µL RNase A solution (100 µg/mL) and incubated in darkness for 30–60 min. The stained cells were read in an Attune flow cytometer (Applied Bio-system, Foster City, CA, USA).

[1] = tested on: human colorectal cancer (Caco2) cells; assay: MTT cell viability assay, Caco2; type: cell-based
Description: The cytotoxic effect of the Hapbim ligand and its complexes (1) and (2) on human breast cancer (MCF7), human colorectal cancer (Caco2), and human normal liver (THLE-2) cell lines was evaluated by the MTT assay. The cells were cultured in a 96-well plate (1 × 10^4 cells/well, 100 μL/well) containing DMEM medium provided with 10% fetal bovine serum, and 1% penicillin/streptomycin. Then, the cells were incubated at 37 °C for 24 h in a CO2 incubator under 5% CO2, 95% air until reaching a confluence of 70–80%. A 20 μL volume of each compound at different concentrations (from 5 to 400 μM for the cancer cell and from 600 to 1000 μM for the normal cells) was added and the cells were re-incubated for a further 24 h. After the incubation period, the cells were incubated again with 5 mg/mL of MTT for 4 h and then the medium was replaced with 100 μL DMSO and vortexed for 20 min. Finally, the absorbance was recorded at 570 nm using the microplate reader. […] To calculate the cell inhibition percentage, the following equation was used:% Cell inhibition = 100 − % cell viability ((At − Ab)/(Ac − Ab)) × 100%)(4) where At is the absorbance value of tested compound; Ab is the absorbance value of blank; Ac is the absorbance value of the control.

Bax gene expression = assay: Real-time qPCR of liver tissue, Bax; type: in vivo; settings: liver tissue of EAC-bearing mice, vs untreated
Description: RNA was isolated from liver tissues using a RNeasy Mini kit. The integrity and purity of RNA were assessed by 1% agarose gel electrophoresis and nanodrop, respectively. The obtained RNA was reverse transcribed to yield cDNA using Quantiscript reverse transcriptase. Specific primers for Bax, caspase 3, and Bcl2 genes in addition to the housekeeping gene, β actin were designed by the Primer 3 web-based tool based on the published mice sequences (Table 5). Quantitative real-time PCR (qPCR) was performed using QuantiTect SYBR Green qPCR Master Mix in a StepOnePlus real-time PCR system and the melting curve condition and fold change calculation were done as previously described.

MCF7 cells = assay: DNA fragmentation (agarose gel), MCF7; type: cell-based, human; settings: MCF7, 117.6 µg/mL, 4 h
Description: MCF7 and Caco2 cells were collected and genomic DNA was extracted using a Gene JET genomic DNA extraction kit following the manufacturer’s protocol (Thermo Scientific, #K0721). The extracted DNA samples were run on a 1.5% agarose gel at 50 V for 2 h and the fragment pattern was visualized by ethidium bromide staining under a UV transilluminator.

[2] = Median lethal dose (LD50) determination; type: in vivo; settings: mice, intraperitoneal, mortality after 24 h
Description: The LD50 was estimated by the method of Enegide. Briefly, different concentrations of compound (2) was prepared by dissolving a certain weight in 2% DMSO and completed with sterile saline then vortexed and left for 5 min until the solution was clear. Three hundred µL of each concentration (10, 20, 40, 60, 80, 100, 120, and 140 mg/kg) was injected intraperitoneally to eight groups of mice (each one containing four mice), then mortality was recorded after 24 h.

[3] = tested on: Ehrlich ascites carcinoma (EAC) cells; assay: EAC cytotoxicity assay in vitro (trypan blue exclusion); type: cell-based, mouse; settings: 2 h at 37 °C
Description: The cytotoxicity determination of compound (2) against EAC cells was calculated by the trypan blue exclusion method. The EAC cells were aspirated from the mouse’s peritoneal cavity by a sterile syringe and immediately transferred into a sterile falcon tube. Then, the cells were washed with sterile PBS to remove any serum or blood traces and centrifuged for 3 min, after which the supernatant was removed. After washing 2–3 times with PBS, the cell pellet was aspirated into a sterile falcon tube and every 1 mL of cell pellet was resuspended in 9 mL of sterile PBS until a concentration of […] in 0.1 mL was achieved, as determined with a hemocytometer; where 0.1 mL of cell suspension was added to 0.880 mL PBS then 20 μL of trypan blue was added. The cells’ viability was checked using a hemocytometer and found to be greater than 98%. […] Cells were visualized and counted under the microscope. For each sample at least 500 cells were counted, and the percent of dead to live cells was calculated. […] The percentage of cell viability was calculated using Equations (5) and (6):(5) % Cytotoxicity=Tdead−Cdead/Ttotal×100% % Viability = 100 − % Cytotoxicity(6) where Tdead is the number of dead cells in the treated tube, Cdead is the number of dead cells in the control tube, and Ttotal is the total number of cells (dead + live) in the treated tube.

SMILES: CS(C)=O.Nc1ccccc1-c1nc2ccccc2[nH]1.O.[Cl][Ru]([Cl])[Cl] [(2), [Ru(III)Cl3(DMSO)(Hapbim)]·H2O]
- cells in G0/G1 phase (Caco2 cells): 18%
- cells in G2/M phase (Caco2 cells): 62%
- cells in S phase (Caco2 cells): 20%
- IC50 ([1]; MTT, 24 h): 250 ± 10 µM
- IC50 Caco2 ([1]; MTT, 24 h): 129 ± 8 µg/mL
- Therapeutic index: IC50 of THLE-2 cell/IC50 of Caco2 ([1]; in vitro): 9.95
- Bax mRNA level (Bax gene expression): significant increases
- DNA fragmentation (MCF7 cells): distinct DNA laddering
- LD50 [2]: 60 mg/kg
- IC50 against EAC cells [3]: 70 ± 1 µg/mL
